Data taken from PubChem BioAssay (NCI).
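Dose response: 5 concentrations. Exposure: 48 h. Format: 96-well plates. Endpoint: linear interpolation; highest concentration if not reached. TGI: concentration producing complete growth inhibition.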 *1 amine or outer side, *2 acyl side, *3 side chain or, on linkers, in order; H or OH if unused. Where a SMILES comes first, the peptide text is derived from it. Bridges are numbered along the chain shown (N, C = ends). Roman numbers before positions name the chains, in order. [ ]: non-standard residue; d: D form. ξ: configuration not given here. X54 = N=C(N)NCCC[C@@H](NC(=N)CCCCCCC(=N)N[C@H](CCCNC(=N)N)C(=O)[*:2])C(=O)[*:1]; dIgl = N[C@@H](C(=O)O)C1Cc2ccccc2C1; Hyp = O=C(O)[C@@H]1C[C@@H](O)CN1; ξIgl = NC(C(=O)O)C1Cc2ccccc2C1; ξOic = O=C(O)C1CC2CCCCC2N1; ξR = N=C(N)NCCCC(N)C(=O)O; ξP = O=C(O)C1CCCN1; ξS = NC(CO)C(=O)O

Tests used:
Experiment in all cases: growth of human tumour cells (NCI), 48 h
MOLT-4 leukemia = test system: MOLT-4 leukemia
M14 melanoma = test system: M14 melanoma
HCT-116 colon = test system: HCT-116 colon
A549 NSCLC = test system: A549 NSCLC
786-0 renal = test system: 786-0 renal
COLO 205 colon = test system: COLO 205 colon
NCI-H522 lung = test system: NCI-H522 lung
NCI-H460 lung = test system: NCI-H460 lung
PC-3 prostate = test system: PC-3 prostate
T-47D breast = test system: T-47D breast
SNB-19 CNS = test system: SNB-19 CNS
RPMI-8226 leukemia = test system: RPMI-8226 leukemia
K-562 leukemia = test system: K-562 leukemia
UACC-257 melanoma = test system: UACC-257 melanoma
SK-OV-3 ovarian = test system: SK-OV-3 ovarian
SW-620 colon = test system: SW-620 colon
NCI-H23 lung = test system: NCI-H23 lung
EKVX NSCLC = test system: EKVX NSCLC
NCI/ADR-RES ovarian = test system: NCI/ADR-RES ovarian
UACC-62 melanoma = test system: UACC-62 melanoma

| SMILES | TGI (MOLT-4 leukemia) [µM] | TGI (M14 melanoma) [µM] | TGI (HCT-116 colon) [µM] | TGI (A549 NSCLC) [µM] | TGI (786-0 renal) [µM] | TGI (COLO 205 colon) [µM] | TGI (NCI-H522 lung) [µM] | TGI (NCI-H460 lung) [µM] | TGI (PC-3 prostate) [µM] | TGI (T-47D breast) [µM] | TGI (SNB-19 CNS) [µM] | TGI (RPMI-8226 leukemia) [µM] | TGI (K-562 leukemia) [µM] | TGI (UACC-257 melanoma) [µM] | TGI (SK-OV-3 ovarian) [µM] | TGI (SW-620 colon) [µM] | TGI (NCI-H23 lung) [µM] | TGI (EKVX NSCLC) [µM] | TGI (NCI/ADR-RES ovarian) [µM] | TGI (UACC-62 melanoma) [µM] |
| --- | --- | --- | --- | --- | --- | --- | --- | --- | --- | --- | --- | --- | --- | --- | --- | --- | --- | --- | --- | --- |
| Cc1c(C(=O)O)n2c(=S)[nH]nc2c2ccccc12 | > 100 | > 100 | > 100 | > 100 | > 100 | > 100 | > 100 | > 100 | > 100 | > 100 | > 100 | > 100 | > 100 | > 100 | > 100 | > 100 | > 100 | > 100 | > 100 | > 100 |
| CC(=O)C1=C(C)O[C@@H]2O[C@H](COCc3ccccc3)[C@@H](OCc3ccccc3)[C@H](O)[C@@H]2S1 | 33.3 | 39.8 | 32 | > 100 | 60.6 | 54.5 | 30.9 | 38.9 | 77.3 | 21.5 | > 100 | 42.6 | 50.3 | 39.7 | 87.6 | 75.5 | 59.9 | 82.8 | 51.6 | 31.8 |
| C/C=C1/CN2CCC34c5ccccc5N(C)C23C2CC1C4(C(=O)OC)C(OC(C)=O)O2 (stereo not given) | > 100 | > 100 | > 100 | > 100 | > 100 | > 100 | > 100 | > 100 | > 100 | > 100 | > 100 | > 100 | > 100 | > 100 | > 100 | > 100 | > 100 | > 100 | > 100 | > 100 |
| O[C@@H]1C[C@H](Cl)c2c(Cl)sc(Cl)c21 | > 100 | > 100 | > 100 | > 100 | > 100 | > 100 | > 100 | > 100 | > 100 | > 100 | > 100 | > 100 | > 100 | > 100 | > 100 | > 100 | > 100 | > 100 | > 100 | > 100 |
| Clc1cc(-c2ccccc2)nc(Nc2nc3ccccc3[nH]2)n1 | > 100 | 63 | > 100 | > 100 | 34.2 | 51 | 33.1 | 93.7 | > 100 | > 100 | > 100 | > 100 | 85.3 | 44 | > 100 | 22.2 | 56 | 49.5 | > 100 | 35.4 |
| C=C(C)[C@@H](O)[C@H](O)C[C@H](C)C1CC[C@]2(C)C1=CC[C@@H]1[C@@]3(C)CC[C@@H](OC(C)=O)C(C)(C)[C@@H]3C[C@@H](OC3OC(COC(C)=O)C(O)C(O)C3O)[C@]12C (stereo not given in full) | 4.5 | 7.38 | 5.88 | 12.2 | 11.4 | 3.39 | 3.55 | 6.51 | 6.59 | 8.51 | 14.7 | 4.43 | 5.21 | 8.53 | 10.4 | 12.3 | 16.1 | 12.3 | 32 | 4.52 |
| CSc1ncc2c(n1)-c1ccccc1OC2N1CCOCC1 (stereo not given) | > 100 | > 100 | > 100 | > 100 | > 100 | > 100 | > 100 | > 100 | > 100 | 80.3 | > 100 | > 100 | > 100 | > 100 | > 100 | > 100 | > 100 | > 100 | > 100 | > 100 |
| O=P(O)(O)c1ccc(-c2ccc(I)cc2)cc1 | > 100 | > 100 | > 100 | > 100 | > 100 | > 100 | > 100 | > 100 | > 100 | > 100 | > 100 | > 100 | > 100 | > 100 | > 100 | > 100 | > 100 | > 100 | > 100 | > 100 |
| O=C1/C(=C/c2ccc(O)cc2)CCCC1CN1CCCCC1 (stereo not given) | 4.82 | 8.07 | 3.22 | 31.9 | 2.38 | 4.02 | 2.79 | 30.7 | 10 | 5.21 | 31.8 | > 100 | > 24.4 | 6.72 | 30.4 | 3.8 | 11.8 | 7.8 | 29.6 | 3.46 |
| COc1cc(C2c3cc4c(cc3OC(NNc3ccccc3)C2C)OCO4)cc(OC)c1OC (stereo not given) | > 47.3 | 22.7 | 13.9 | > 42.3 | 12.8 | 10.3 | 4.72 | 16.4 | > 56.3 | > 100 | > 31 | 31.8 | > 32.1 | > 100 | > 100 | > 100 | > 100 | 21.1 | 58.6 | > 43.5 |
| O=c1c2c3c(sc2nc2n1N=CN(c1ccccc1)C2)CCCC3 | > 100 | > 100 | > 100 | > 100 | > 100 | > 100 | > 100 | > 100 | > 100 | > 100 | > 100 | > 100 | > 100 | > 100 | > 100 | > 100 | > 100 | > 100 | > 100 | > 100 |
| Cc1nnc(N)nc1/C=C\c1ccc(Cl)cc1Cl | > 100 | 85.3 | 63.1 | > 100 | > 100 | 55.8 | 57.5 | 42.8 | > 100 | > 100 | > 100 | > 100 | > 100 | > 100 | > 100 | 51.3 | > 100 | > 100 | > 100 | > 100 |
| Cc1cc2nc3c(C#N)c4c(c(Nc5ccc(F)cc5)n3c2cc1C)CCC4 | > 100 | > 100 | > 100 | > 100 | > 100 | > 100 | > 100 | > 100 | > 100 | > 100 | > 100 | > 100 | > 100 | > 100 | > 100 | > 100 | > 100 | > 100 | > 100 | > 100 |
| CC(C)NC(=O)OCc1c(COC(=O)NC(C)C)c(-c2ccc[n+](COC(=O)Cc3ccccc3)c2)n2c1CCC2 | > 100 | > 100 | > 100 | > 100 | 44.4 | > 100 | 36.2 | > 100 | > 100 | > 100 | > 100 | > 100 | > 100 | > 100 | > 100 | 50.5 | 69.6 | > 100 | > 100 | 44.7 |
| Cn1c2ccc(F)cc2c2ccc3c(c21)C(=O)C=CC3=O | 13.2 | 27.3 | 20.3 | > 100 | 8.21 | 21.6 | 4.95 | > 100 | 19.3 | 9 | > 100 | 33.4 | > 36.4 | 30.9 | > 100 | 8.54 | 31.4 | 37.9 | 59.6 | > 61.3 |
| O=C(CCBr)N1CCN(C(=O)CCBr)CC1 | 215 | 131 | 151 | 140 | 191 | 225 | 146 | 113 | 500 | 232 | 198 | 394 | 459 | 246 | 212 | 218 | 150 | 212 | 221 | 73.3 |
| N=C(N)NCCCC(NC(=O)C1CC2CCCCC2N1C(=O)[C@H](NC(=O)C(CO)NC(=O)C(NC(=O)CNC(=O)[C@@H]1C[C@@H](O)CN1C(=O)C1CCCN1C(=O)C(CCCNC(=N)N)NC(=O)[C@@H](CCCNC(=N)N)NC(=N)CCCCCCC(=N)N[C@H](CCCNC(=N)N)C(=O)NC(CCCNC(=N)N)C(=O)N1CCCC1C(=O)N1C[C@H](O)C[C@H]1C(=O)NCC(=O)NC(C(=O)NC(CO)C(=O)N[C@@H](C(=O)N1C(C(=O)NC(CCCNC(=N)N)C(=O)O)CC2CCCCC21)C1Cc2ccccc2C1)C1Cc2ccccc2C1)C1Cc2ccccc2C1)C1Cc2ccccc2C1)C(=O)O (stereo not given in full) (I: [ξR][ξP][Hyp]G[ξIgl][ξS][dIgl][ξOic][ξR]-OH / II: [ξR][ξP][Hyp]G[ξIgl][ξS][dIgl][ξOic][ξR]-OH; linker I:N-II:N via X54) | 2.89 | 7.23 | > 10 | > 10 | 5.07 | 3.28 | > 10 | 3.87 | 3.59 | 4.42 | 5.49 | 4.48 | 4.03 | > 10 | 3.74 | 6.35 | 4.17 | 3.67 | > 10 | 3.72 |
| Nn1c(Nc2ccc(S(N)(=O)=O)cc2)nnc(/C=C/c2c(O)ccc3ccccc23)c1=O | 0.805 | 69.8 | 34.1 | 92.4 | 66.8 | 88.1 | 33 | 96.2 | > 100 | 40.6 | > 100 | 26.7 | 34.5 | 92.8 | 88.5 | 45.3 | 22.4 | 34.2 | 54 | 49.9 |
